Reference: patent EP2131850B1, “EXTRACTS OF ASTER KORAIENSIS, AND PHARMACEUTICAL COMPOSITION AND FUNCTIONAL FOOD COMPRISING THE SAME” (Korea Institute of Oriental Medicine, priority 2007, dated 2008)
≈ marks a conversion by molar mass, not a printed value.

Test system: production of advanced glycation endproducts (glycation of bovine serum albumin (BSA))
Assay: In vitro inhibition of production of advanced glycation endproducts (BSA/fructose/glucose culture, fluorescence)
Type: biochemical
Details: for Inhibition (%) of production of advanced glycation endproducts Inhibition: cultured at 37 °C for 14 days
Experimental: For the in vitro analysis of the inhibitory effect cf each cf the leaf and stem extract of Aster koraiensis, the root extract of Aster koraiensis, the flower extract of Aster koraiensis, and the fractions cf each of the extracts, on the production cf advanced glycation endproducts, bovine serum albumin (hereinafter, referred to as BSA; Sigma, USA)) was selected as a protein source. BSA was added to 50 mM phosphate buffer (pH 7.4) to a concentration of 10 mg/mℓ. As a sugar source, a mixture of 0.2 M fructose and 0.2 M glucose was used. The fructose/glucose mixture was added to the prepared BSA solution. As test groups, each of the leaf and stem extract cf Aster koraiensis, the root extract cf Aster koraiensis, the flower extract of Aster koraiensis, and the hexane fraction, ethyl acetate fraction, butanol fraction and water fraction of each cf the extracts, was dissolved in distilled water. Then, each of the solutions was added to the BSA/sugar mixture and cultured at 37 °C for 14 days.
At this time, 0.02% sodium azide was added as an antibacterial agent. A control group was a culture of the BSA/sugar mixture, and the blank of each cf the test groups and the control group was not cultured after their preparation. Meanwhile, as a positive control for use as an index to determine the superiority cf the inventive material, aminoguanidine was used. Four samples for each of the cultures were prepared to minimize errors. After 14 days, the content of advanced glycation endproducts (AGEs) in each of the cultures was analyzed, and the analysis results were recorded. […] The amount cf advanced glycation endproducts having such properties was measured with a spectrofluorometer (excitation: 350 nm, and emission: 450 nm) to analyze the inhibition of the production of advanced glycation endproducts. […]
Each of the root extract and flower extract of Aster koraiensis, prepared in Example, were prepared into solutions having concentrations cf 10 µg/mℓ, 25 µg/mℓ and 50 µg/mℓ, respectively. […] After 14 days, the amount of advanced glycation endproducts produced in each of the cultures was measured with a spectrcfluorometer (excitation: 350 nm, and emission: 450 nm), and the measurement results are shown in Table 1 and FIG. 2.
The inhibition of the production of advanced glycation endproducts is calculated according to the following equation: Inhibition (%) of production = 100-(fluorescentintensityofsamplegroupfluorescentintensityofblankofsamplegroup)/(fluorenscentintensityofcontrolgroup-fluorescentintensityofblankofcontrolgroup)x100 [formula] […]
After 14 days, the amount cf advanced glycation endproducts produced in each cf the cultures was measured with a spectrcfluorometer (excitation: 350 nm, and emission: 450 nm).

`N=C(N)NN` [Aminoguanidine] was tested, and the “Inhibition (%) of production of advanced glycation endproducts Inhibition” value (from here on “Inhibition (%)”) (concentration 18.5 µg/mℓ) was 12.70 ± 6.12%, the “Inhibition (%)” value (concentration 55.5 µg/mℓ) was 39.46 ± 1.91% and the “Inhibition (%)” value (concentration 74.0 µg/mℓ) was 50.68 ± 0.51%. The IC50 inhibitory concentration (production of advanced glycation endproducts, BSA/sugar mixture, 14 days) was 72.12 µg/mL (≈ 973 µM).
